Measurements published in publication PMC5908784, “Extracellular loops 2 and 3 of the calcitonin receptor selectively modify agonist binding and efficacy” (Biochemical Pharmacology, 2018).
Residue numbers refer to the chain shown, from its start. Where a SMILES comes first, the peptide text is derived from it. Bridges are numbered along the chain shown (N, C = ends).

Legend:
Experiment in all cases: Heterologous whole cell competition binding
Conditions in all cases: heterologous competition of 125I-sCT(8-32), whole cells, mean ± S.E.M., SEM
hCTR L291A = molecular target: T1, hCTR L291A (Homo sapiens, UniProt P30988, L291A)
T1 construct: expressed in transfected cells
T1 sequence (P30988 25-474 L291A): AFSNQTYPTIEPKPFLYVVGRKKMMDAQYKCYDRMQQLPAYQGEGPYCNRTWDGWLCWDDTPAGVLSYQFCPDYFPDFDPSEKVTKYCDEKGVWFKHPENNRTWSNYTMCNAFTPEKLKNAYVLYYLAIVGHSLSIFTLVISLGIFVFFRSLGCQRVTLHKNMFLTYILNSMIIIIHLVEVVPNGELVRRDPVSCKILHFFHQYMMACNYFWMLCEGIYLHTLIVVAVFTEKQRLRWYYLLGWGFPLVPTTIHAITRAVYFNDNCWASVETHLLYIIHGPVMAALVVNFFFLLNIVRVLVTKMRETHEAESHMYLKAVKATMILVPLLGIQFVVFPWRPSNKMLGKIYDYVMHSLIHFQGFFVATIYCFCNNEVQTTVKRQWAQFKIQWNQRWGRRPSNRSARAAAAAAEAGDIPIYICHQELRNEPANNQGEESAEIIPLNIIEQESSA
Method: (§1) Following overnight incubation non-bound ligand was removed and radioactivity was determined using a gamma counter.
(§2) Data were corrected for radioligand occupancy using the Cheng-Prusoff equation in Prism; as such data are reported as pKi. Emax and EC50 were estimated from concentration-response curves using with a 3-parameter logistic equation in Prism (v7). These values are a composite of functional affinity, efficacy and stimulus response coupling. […] Significance was accepted at P < 0.05.

hCTR F356A = molecular target: T2, hCTR F356A (Homo sapiens, UniProt P30988, F356A)
T2 construct: c-Myc (N); expressed in transfected cells
T2 sequence (P30988 25-474 F356A): T1 sequence (P30988 25-474 L291A) with A267L, F332A
Method: as §1, §2

hCTR V358A = molecular target: T3, hCTR V358A (Homo sapiens, UniProt P30988, V358A)
T3 construct: c-Myc (N); expressed in transfected cells
T3 sequence (P30988 25-474 V358A): T1 sequence (P30988 25-474 L291A) with A267L, V334A
Method: as §1, §2

hCTR M367A = molecular target: T4, hCTR M367A (Homo sapiens, UniProt P30988, M367A)
T4 construct: c-Myc (N); expressed in transfected cells
T4 sequence (P30988 25-474 M367A): T1 sequence (P30988 25-474 L291A) with A267L, M343A
Method: as §1, §2

hCTR V293A = molecular target: T5, hCTR V293A (Homo sapiens, UniProt P30988, V293A)
T5 construct: c-Myc (N); expressed in transfected cells
T5 sequence (P30988 25-474 V293A): T1 sequence (P30988 25-474 L291A) with A267L, V269A
Method: as §1, §2

Ki (hCTR L291A): 67.6 nM
Ki (hCTR F356A): 12 nM
Ki (hCTR V358A): 14.5 nM
Ki (hCTR M367A): 21.4 nM
Ki (hCTR V293A): 14.1 nM
Structure (SMILES): CSCC[C@H](NC(=O)CNC(=O)[C@H](CO)NC(=O)[C@H](Cc1ccccc1)NC(=O)[C@H](CCCNC(=N)N)NC(=O)[C@H](Cc1c[nH]cn1)NC(=O)[C@H](Cc1ccccc1)NC(=O)[C@H](CC(N)=O)NC(=O)[C@H](CC(N)=O)NC(=O)[C@H](CC(C)C)NC(=O)[C@H](CC(N)=O)NC(=O)[C@H](CCCNC(=N)N)NC(=O)[C@H](Cc1c[nH]c2ccccc12)NC(=O)[C@H](Cc1ccc(O)cc1)NC(=O)[C@H](C)NC(=O)[C@H](CO)NC(=O)[C@H](CC(C)C)NC(=O)[C@@H](NC(=O)[C@@H]1CSSC[C@H](N)C(=O)N[C@@H](CO)C(=O)N[C@@H](CC(N)=O)C(=O)N[C@@H](CC(C)C)C(=O)N[C@@H](CO)C(=O)N[C@@H]([C@@H](C)O)C(=O)N1)C(C)C)C(=O)NCC(=O)N[C@@H](Cc1ccccc1)C(=O)NCC(=O)N1CCC[C@H]1C(=O)N[C@@H](CCC(=O)O)C(=O)N[C@H](C(=O)N1CCC[C@H]1C(N)=O)[C@@H](C)O [pCT] (H-CSNLSTCVLSAYWRNLNNFHRFSGMGFGPETP-NH2; disulfide 1-7)
